In patent US6777389B1, “Cosmetic or dermatological use of 7-hydroxylated steroids in combination with elastin derived peptides” (Connective Tissue Imagineering LLC, priority 1998, dated 2004):

Experiments:
human keratinocytes [1] = assay: Anti-radical effect on UVA-irradiated human keratinocyte suspension, lipid peroxide chemiluminescence (Example 7); format: cell-based; settings: UVA irradiated 30 minutes, 10^−6 M
Excerpt: The anti-radical effects of 3β,7α-dihydroxy-5-androstene-17-one (7α-hydroxy-DHEA) on a suspension of human keratinocytes.
Keratinocytes from a healthy donor were cultivated to the subconfluent stage in a specific medium (KGM) for the proliferation of keratinocytes. The suspensions obtained were split up, in triplicate, into four series, of which three were irradiated for thirty minutes with a lamp […] UVA so as to speed up the production of free radicals. Among the three irradiated series, one contained Vitamins C and E (0.7%) and was used as a protection reference, one contained 7α-hydroxy-DHEA at 10^−6 M and the last served as a control. Table D below reports on the measurement of the anti-radical effects.
The free radicals produced generate lipoid peroxides which are measured by chemiluminescence (Belghmi et al. J Biolum. Chemilum. 2: 113-119, 1982). The effectiveness of the 7α-hydroxy-DHEA was calculated on the basis of non-irradiated controls and the protection reference.

thymocytes = assay: Glucocorticoid-induced apoptosis of thymocytes, flow cytometry with propidium iodide (Example 4); format: cell-based, mouse C57BL/6; settings: 6 hours
Procedure: Effects of 3β,7α-dihydroxy-5-androstene-17-one (7α-hydroxy-DHEA) and of 3β,7α-dihydroxy-5α-androstane-17-one (7α-hydroxy-ISOA) on the cellular apoptosis induced by glucocorticoids.
The thymus of a mouse C57BL/6 age four weeks was removed. Culture of the thymocytes was carried out for 6 hours in a RPMI 1640 medium and in the presence or in the absence of the steroid tested. The apoptosis (fragmentation of the DNA) was measured by flow cytometry after marking with propidium iodide. The apoptotic phenomenon was controlled by electrophoresis of the DNA developed by ethidium bromide according to the traditional technique (observation of ladders of 200 pairs of bases).

human fibroblasts = assay: Proliferation of human fibroblasts in culture, cell count (Example 6); format: cell-based; settings: 72 hours of contact, control 190,667 ± 6,766
Procedure: Effects of 3β,7α-dihydroxy-5-androstene-17-one (7α-hydroxy-DHEA) on the proliferation of human fibroblasts in culture.
The cultures of human fibroblasts (person) were seeded on twenty-four site plates at the rate of 50,000 cells per site in a standard culture medium (DMEM, gentamycine, amphotericine B, penicillin, L-glutamine, 10% SVF). The tests were carried out on four series of three sites. After twenty-four hours, the fibroblasts adhered to the support and three series were treated with 7α-hydroxy-DHEA at concentrations of 10^−6 M, 6. 10^−6 M and 10^−7 M. The fourth series only contained the vector (ethanol). The media were renewed daily, and at ninety-six hours (seventy-two hours of test contact with the 7α-hydroxy-DHEA), the fibroblasts were counted on a Malassez cell in the presence of blue trypan.

elastin content of skin = assay: Elastin content of neonatal rat skin by HPLC of thermolysin-produced peptides (Example 3); format: in vivo, neonatal male Sprague-Dawley rats; settings: 0.5% in carrier, twice daily, 30 days, five animals per group
Procedure: (§1) Chemical alterations in the skins of neonatal male Sprague-Dawley rats.
(§2) Collagen and elastin contents were measured on dry, defatted, hair-free skin samples. Collagen contents were assessed through hydroxyproline evaluations in hydrolyzed, 0.1N hot sodium hydroxide extracts. Elastin contents were measured by HPLC evaluation of the contents of thermolysin-produced peptides in digests of the hot sodium hydroxide residue. Controls were both shaven and unshaven, the shaven receiving only the carrier twice daily.
(§3) Elastin contents were increased by all the compounds (28% for DHEA, 30% for the 7 hydroxy and the 7 hydroxy-isoandrosterone). In these studies statistical analysis of variance was significant at an alpha level of 0.01. Similar to the histologic observations, these chemistries are reversible. Collagen and elastin contents returned to near normal levels after cessation of treatment for 30 days.

[2] = In-vitro oxygen radical assay with luminol and hydrogen peroxide (Example 2); format: biochemical; settings: luminol pre-incubated with compound at 100 μg/ml
Procedure: The ability of a compound to scavenge free radicals implicates it as an antioxidizing agent that could help to reduce the natural oxidizing effects of aging. In a first test of whether DHEA or it derivatives have the ability to capture free radicals, an in-vitro oxygen radical assay was devised, The assay was run in quadruplicate to perfect the concentrations of controls as well as test the diluents (phosphate buffered saline (PBS) and DMSO) in which the DHEA and its derivatives were dissolved. The positive controls used were homocysteine and ascorbic acid (Vitamin C).

human keratinocytes [3] = assay: Viability of human keratinocytes in culture, MTT test (Example 5); format: cell-based
Procedure: Effects of 3β,7α-dihydroxy-5-androstene-17-one (7α-hydroxy-DHEA) on the viability of human keratinocytes in culture.
Human keratinocytes were obtained from surgical items and were cultivated in a monolayer until preconfluence. The 7α-hydroxy-DHEA was administered to these cultures at various concentrations in ethanolic solution (10%), each concentration being tested eight times. Controls were carried out with ethanol alone (10%). After twenty-four hours, the viability of the keratinocytes was measured by testing with MTT (3-(4,5-dimethylthiazol-2-yl)-2,5 diphenyl tetrazolium bromide) where the mitochondrial dehydrogenase succinate converts the MTT into blue crystals of formazan soluble in DMSO (Mosmann, J. Immunol. Methods 65: 55-63, 1983). The cellular viability is calculated according to the formula:
Any value greater than 100 indicates a product that encourages cellular viability.

collagen content of skin = assay: Collagen content of neonatal rat skin by hydroxyproline evaluation (Example 3); format: in vivo, neonatal male Sprague-Dawley rats; settings: 0.5% in carrier, twice daily, 30 days, five animals per group
Procedure: as §1, §2, §3

[4] = test system: elastin content of the skin; assay: Elastin content of rat skin after 30 days of topical treatment (FIG. 1); format: in vivo, Sprague-Dawley male rat; settings: topical 5% concentration of DHEA, similar time period, three animals
Excerpt: In FIG. 1, S CONTR represents the Shaven Control and US CONTR represents the Unshaven Control. FIG. 1 illustrates that the present invention has the advantageous qualities of enhancing the softness or elasticity of the skin by increasing the endogenous production of elastin in the skin. The present invention is also directed to a method of improving the texture of skin, specifically the physical appearance of the skin by improving the endogenous production of elastin. The method of the present invention employs any of a number of known administrative routes such as oral, IV, subcutaneous, transcutaneous, and topical administration. […]
It is preferable that the topical administration of the composition of the present invention occur repeatedly over a predetermined time period, preferably in the range of about one week to about one month. […] Testing illustrated that the endogenous elastin (measured by microgram (μg) Elastin per milligram (mg) Skin Fat Free Dry weight) of each of the rats to which the administration was applied doubled over that of a control sample and to a sample which was treated with a 5% concentration of DHEA over a similar time period. […] The data of FIG. 1 are significant at an alpha level less than 0.001 as determined by analysis of variance. […]

rat skin dermal layer = assay: Histologic examination of H&E stained rat skin cross sections (Example 1); format: in vivo
Excerpt: 7 hydroxy DHEA and 7 hydroxy isoandrosterone treated rat skin.
Upon histologic examination of hematoxylin and eosin (H&E) stained rat skin cross sections, a striking physical change was noted. […] This finding was consistent and most pronounced when the parent compound (DHEA) was used on young, healthy rats. However, it also occurred in replicate experiments when the derivatives were used. […] The latter two findings support the toxicologic studies, done concomitantly, which found no significant toxicity when the compounds were used at 0.5% concentration in a suitable carrier applied twice daily (12 hour intervals) for 30 days. […] A subset of experimental animals within each treatment group were left untreated for 30 days. Upon examination, treated skin sections were indistinguishable from the untreated.

[5] = steroid 10^−5 M with Dexamethasone 10^−5 M
[6] = steroid 10^−6 M with Dexamethasone 10^−6 M

## C[C@]12CC[C@H](O)CC1=C[C@@H](O)[C@@H]1[C@@H]2CC[C@]2(C)C(=O)CC[C@@H]12 [7α-hydroxy-DHEA, 3β,7α-dihydroxy-5-androstene-17-one]
Human keratinocytes [1]; calculated from non-irradiated controls and protection reference
  Effectiveness: 90%
Human keratinocytes [1]; irradiated controls 427,750 ± 137,322
  Chemiluminescence: 44,164 ± 13,303
thymocytes; [5]
  Apoptotic cells: 48.6%
thymocytes; [6]
  Apoptotic cells: 58.8%
Human fibroblasts; 5 · 10^−6 M
  Number of Fibroblasts: 258,667 ± 3,351
Human fibroblasts; 10^−6 M
  Number of Fibroblasts: 268,000 ± 27,154
Human fibroblasts; 10^−7 M
  Number of Fibroblasts: 230,667 ± 8,511
Elastin content of skin
  elastin content increase: 30%
[2]
  reduction of light emission from luminol: did not cause any reduction
Human keratinocytes [3]; 5 · 10^−5 M, 24 hours, control = 100
  Viability of the keratinocytes: 111 ± 7%
Human keratinocytes [3]; 5 · 10^−6 M, 24 hours, control = 100
  Viability of the keratinocytes: 147 ± 9%
Human keratinocytes [3]; 5 · 10^−7 M, 24 hours, control = 100
  Viability of the keratinocytes: 139 ± 3%
Human keratinocytes [3]; 10^−4 M to 10^−8 M
  cytotoxicity: no cytotoxicity was observed
Human keratinocytes [3]; 10^−4 M, 24 hours, control = 100
  Viability of the keratinocytes: 124 ± 10%
Human keratinocytes [3]; 10^−5 M, 24 hours, control = 100
  Viability of the keratinocytes: 119 ± 7%
Human keratinocytes [3]; 10^−6 M, 24 hours, control = 100
  Viability of the keratinocytes: 154 ± 6%
Human keratinocytes [3]; 10^−7 M, 24 hours, control = 100
  Viability of the keratinocytes: 147 ± 5%
Human keratinocytes [3]; 10^−8 M, 24 hours, control = 100
  Viability of the keratinocytes: 127 ± 3%
Human keratinocytes [3]; concentrations between 10^−4 M and 10^−8 M
  effect on viability of human keratinocytes: significantly increases the viability
Collagen content of skin
  collagen increase: 24%

## C[C@]12CC[C@H](O)C[C@@H]1C[C@@H](O)[C@@H]1[C@@H]2CC[C@]2(C)C(=O)CC[C@@H]12 [7α-hydroxy-ISOA, 3β,7α-dihydroxy-5α-androstane-17-one]
thymocytes; [5]
  Apoptotic cells: 46.3%
thymocytes; [6]
  Apoptotic cells: 72.0%
Elastin content of skin
  elastin content increase: 30%
[2]
  reduction of light emission from luminol: 15%
Collagen content of skin
  collagen increase: 24%

## C[C@]12CC[C@H](O)CC1=CC[C@@H]1[C@@H]2CC[C@]2(C)C(=O)CC[C@@H]12 [DHEA, 3β-hydroxy-5-androstene-17-one, reference compound]
thymocytes; [5]
  Apoptotic cells: 51.4%
thymocytes; [6]
  Apoptotic cells: 39.0%
[4]
  endogenous elastin (mean): 1.753 microgram (μg) Elastin per milligram (mg) Skin Fat Free Dry weight
Elastin content of skin
  elastin content increase: 28%
Rat skin dermal layer; 0.5% in carrier, twice daily, 30 days, vs shaven and unshaven untreated controls
  thickness of the dermal layer of skin: thickened to nearly twice that of the untreated controls
Rat skin dermal layer; animals left untreated for 30 days after treatment
  reversibility of dermal thickening: completely reversible
[2]
  reduction of light emission from luminol: 20%
Human keratinocytes [3]; other comparative tests, concentration not given
  Viability of the keratinocytes: 100±5
Collagen content of skin
  collagen decrease: 16%
